The source of these data is publication PMC10728186, “Acid phosphatase-like proteins, a biogenic amine and leukotriene-binding salivary protein family from the flea Xenopsylla cheopis” (Communications Biology, 2023).

Where two headings read alike, the source gives them in different places.

Assay type in all cases: binding
Assay [1] has as its target T1, XcAP-1 (Xenopsylla cheopis, UniProt A2IA89).
T1 construct: mature ORF (no signal peptide) in VR1020 vector, secreted from HEK293 / Expi293; monomer; residues Asp7-Asn361 (mature count) seen in crystal; natural Gly and Ser in place of the two catalytic His
T1 sequence (A2IA89 17-374): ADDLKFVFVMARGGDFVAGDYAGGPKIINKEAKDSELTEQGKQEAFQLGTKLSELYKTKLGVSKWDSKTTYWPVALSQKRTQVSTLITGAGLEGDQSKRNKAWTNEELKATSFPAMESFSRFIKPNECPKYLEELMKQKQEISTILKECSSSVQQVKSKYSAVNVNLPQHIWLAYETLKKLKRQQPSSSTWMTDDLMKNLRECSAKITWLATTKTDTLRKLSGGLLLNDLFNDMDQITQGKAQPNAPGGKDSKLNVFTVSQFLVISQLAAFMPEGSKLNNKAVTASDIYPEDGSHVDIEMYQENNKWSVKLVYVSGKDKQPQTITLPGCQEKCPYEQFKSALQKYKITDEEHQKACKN
In words: isothermal titration calorimetry. From the text: isothermal titration calorimetry on XcAP-1
On the technique in general: ITC needs no label: the signal is the heat of the interaction.

A further assay has as its target T2, XcAP-3 (Xenopsylla cheopis, UniProt A2IA90).
T2 construct: mature ORF (no signal peptide) in pcDNA3.1(+), secreted from HEK293 / Expi293; natural Gly and Pro in place of the two catalytic His; Thr10, Ile229, Lys266 (mature count)
T2 sequence (A2IA90 20-380): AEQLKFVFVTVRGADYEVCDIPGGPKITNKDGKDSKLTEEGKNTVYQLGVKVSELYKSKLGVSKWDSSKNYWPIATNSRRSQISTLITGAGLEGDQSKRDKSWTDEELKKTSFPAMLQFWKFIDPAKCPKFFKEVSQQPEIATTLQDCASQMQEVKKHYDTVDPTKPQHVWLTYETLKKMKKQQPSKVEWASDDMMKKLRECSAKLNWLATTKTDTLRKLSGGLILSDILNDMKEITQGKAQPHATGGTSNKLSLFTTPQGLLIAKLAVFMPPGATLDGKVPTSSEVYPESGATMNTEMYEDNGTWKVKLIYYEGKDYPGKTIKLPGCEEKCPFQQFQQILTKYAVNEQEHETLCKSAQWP
The assay can be described thus: isothermal titration calorimetry. The source says: isothermal titration calorimetry on XcAP-3

Another assay addresses T3, XcAP-2 (Xenopsylla cheopis, UniProt A2IA93).
T3 construct: mature ORF (no signal peptide) in pcDNA3.1(+), secreted from HEK293 / Expi293; natural Gly and Pro in place of the two catalytic His; Thr10, Ile228, His265 (mature count)
T3 sequence (A2IA93 20-378): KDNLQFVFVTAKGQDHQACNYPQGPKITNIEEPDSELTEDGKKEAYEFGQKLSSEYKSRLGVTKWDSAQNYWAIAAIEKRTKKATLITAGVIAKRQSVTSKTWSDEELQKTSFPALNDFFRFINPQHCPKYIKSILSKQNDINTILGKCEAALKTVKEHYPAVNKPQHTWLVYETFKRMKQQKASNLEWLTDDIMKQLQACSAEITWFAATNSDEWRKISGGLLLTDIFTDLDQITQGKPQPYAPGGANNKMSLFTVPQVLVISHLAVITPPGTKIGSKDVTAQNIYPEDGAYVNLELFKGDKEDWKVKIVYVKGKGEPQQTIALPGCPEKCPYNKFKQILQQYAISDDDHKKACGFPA
In words: isothermal titration calorimetry. The source says: isothermal titration calorimetry on XcAP-2

In assay [2] the target is T1, XcAP-1. The assay can be described thus: isothermal titration calorimetry; crystal structure […] A.
Assay [3] has as its target T1, XcAP-1. The assay can be described thus: crystal structure […] A. The following applies: co-purified from HEK293 culture, modelled from density; pocket near substituted catalytic residues; second site beside serotonin.

As to `CNC[C@H](O)c1ccc(O)c(O)c1` [Epinephrine], the Kd on XcAP-1 [1] (read-out: XcAP-1) was 17.7 nM.

For the molecule `NCCc1c[nH]cn1` [Histamine], the Kd at XcAP-3 (read-out: K (M^-1) (converted)) is 29.2 nM; at XcAP-3 (read-out: XcAP-3) it was 37 nM; at XcAP-2 (read-out: K (M^-1) (converted)), 43.9 nM; at XcAP-2 (read-out: XcAP-2) it was 37.7 nM.

For the molecule `CCCCC/C=C\C[C@@H](O)/C=C/C=C/C=C\[C@@H](O)CCCC(=O)O` [LTB4], the Kd at XcAP-2 (read-out: XcAP-2) is 111 nM.

On to `CCCCC/C=C\C\C=C/C=C/C=C/[C@@H](SC[C@H](NC(=O)CC[C@H](N)C(=O)O)C(=O)NCC(=O)O)[C@@H](O)CCCC(=O)O` [LTC4], for which the results for the Kd at XcAP-3 (read-out: XcAP-3), at XcAP-2 (read-out: XcAP-2) and at XcAP-1 [1] (read-out: XcAP-1) were 65.8 nM, 78.7 nM and 37.4 nM, respectively.

`CCCCC/C=C\C\C=C/C=C/C=C/[C@@H](SC[C@H](N)C(=O)NCC(=O)O)[C@@H](O)CCCC(=O)O` [LTD4]: on XcAP-2 (read-out: XcAP-2), the Kd came to 153 nM.

`CCCCC/C=C\C\C=C/C=C/C=C/[C@@H](SC[C@H](N)C(=O)O)[C@@H](O)CCCC(=O)O` [LTE4]: the Kd on XcAP-2 (read-out: XcAP-2) is 60.2 nM.

As to `NC[C@H](O)c1ccc(O)c(O)c1` [Norepinephrine], the Kd at XcAP-1 [1] (read-out: XcAP-1) stood at 76.9 nM.

With `NCCc1c[nH]c2ccc(O)cc12` [Serotonin], the Kd at XcAP-1 [2] is 3.72 nM; on XcAP-1 [1] (read-out: K (M^-1) (converted)), 5.92 nM.

Take `CCCCCC/C=C\CCCCCCCC(=O)O` [palmitoleic acid]: the “crystal structure 1.75 A” value on XcAP-1 [3] was “near the putative catalytic site of XcAP-1 was also observed, in which we modeled a palmitoleic acid”.
